# Experimental data published in patent EP1289507B1, “USE OF AN ALDOSTERONE ANTAGONIST FOR THE TREATMENT OR PROPHYLAXIS OF ALDOSTERONE-MEDIATED PATHOGENIC EFFECTS” (priority 2000, dated 2001).
# Where two headings read alike, the source gives them in different places.
# Assays:
# [1] = tested on: saline-drinking SHRSP; assay: Stroke and cerebrovascular damage in saline-drinking SHRSP; assay type: in vivo, rats; details: 100 mg/kg/day
# From the text: Fifteen male, 9 weeks of age, saline-drinking SHRSP were included in the experiment.
# [2] = tested on: aortas of New Zealand white rabbits on normal or 1 % cholesterol chow; assay: Endothelial function (isometric tension, superoxide generation) of aortas in diet induced atherosclerosis; assay type: in vivo; details: for % NTG (peak relaxation to nitroglycerin) / %Ach (peak relaxation to acetylcholine): eplerenone 50 mg/kg twice daily; for %Ach (peak relaxation to acetylcholine): 6 weeks; for O2 counts: lucigenin chemiluminescence
# Protocol: Methods: New Zealand white rabbits were randomized to four treatment groups. 32 Rabbits were placed on normal (NC) or 1 % cholesterol chow (HC) for a duration of 8 weeks. […] Rabbits were euthanized at the end of 8 weeks and the aortas extracted for isometric tension studies and estimation of superoxide (O2^-) generation in vessel segments by lucigenin chemiluminescence (250 µM). Vessels were preconstricted with phenylephrine (3 x 10^-7) to approximately 50% of peak constriction and dose responses to acetylcholine (Ach) and nitroglycerin (NTG) tested.
# [3] = Multiple dose tolerability and pharmacokinetic trials, Japan and Ex-Japan; assay type: in vivo, Japanese (Japan) and European (Ex-Japan) subjects; details: Japanese male subjects, 400 mg daily for seven days, six subjects
# Protocol: The Ex-Japan trials included (i) a single dose tolerability trial, and (ii) a multiple dose tolerability trial, and (iii) a food effect study.
# Both single dose and multiple dose tolerability trials were conducted in Japan utilizing healthy male Japanese subjects. […] Six subjects who received the 100 mg dose also participated in the food effect treatment arm of the single dose tolerability trial.
# No formal statistical analyses were performed and the actual derived data is presented for comparison purposes only.
# A multiple-dose safety and pharmacokinetic study among Japanese subjects was conducted in Japan. This was a single-blind, randomized, placebo-controlled study. […] Serial blood and urine samples were collected throughout the study for measurement of pharmacokinetic, renal, and hormonal parameters after a single dose on Day 1 and after seven days of dosing.
# [4] = Pharmacokinetics and tolerability in subjects with moderate hepatic impairment vs normal healthy subjects; assay type: in vivo, human subjects; details: for AUC(0-t): read-out: AUC (0-lqc), Least Squares Mean; for AUC(0-inf): read-out: AUC (0-∞), Least Squares Mean
# [5] = Form H content of dried solids by X-ray powder diffraction (XPRD); assay type: physicochemical; details: for Estimated Weight Percent of Form H / Form H Peak Area 12° Two Theta Peak: dried solids from methyl ethyl ketone crystallization
# Protocol: The weight percent of the diepoxide or 11,12-epoxide in each sample is given in Tables C-6A and C-6B, respectively. A micro-flea magnetic stirrer was added to each scintillation vial along with 1 mL of methyl ethyl ketone. The vials were loosely capped and the solid dissolved by heating to reflux on a hot plate with magnetic stirring. Once the solids were dissolved, the solutions were allowed to cool to room temperature on the hot plate. Magnetic stirring was maintained during the cooling period. After the solutions reached room temperature, the solids were collected by vacuum filtration and immediately analyzed by X-ray powder diffraction (XPRD). The solids were then placed in a 100°C oven and dried for one hour at ambient pressure. The dried solids were analyzed by XPRD for Form H content by monitoring the area of the Form H diffraction peak at about 12.1 degrees two theta. All XPRD diffraction patterns were recorded using an Inel Multipurpose Diffractometer. Table C-6A
# The peak intensities have been normalized for ease of comparison. No Form H was detected for the dried samples corresponding to the methyl ethyl ketone crystallizations performed at doping levels of 0 and 1%. Form H was detected in the dried samples corresponding to the methyl ethyl ketone crystallizations performed at doping levels of 3 and 5%. The area for the Form H diffraction peak at about 12.1 degrees two theta and the estimated Form H content for each sample are given in Table C-6C below. Table C-6C
# The peak intensities have been normalized for ease of comparison. No Form H was detected for the dried samples corresponding to the methyl ethyl ketone crystallizations performed at doping levels of 0, 1% and 5%. Form H was detected in the dried samples corresponding to the methyl ethyl ketone crystallization performed at a doping level of 10%. The area for the Form H diffraction peak at 12.1 degrees two theta and estimated Form H content for each sample are given in Table C-6D. Table C-6D
# Table C-7B reports the weight fraction of Form H measured in materials dried using either a fluid bed (LAB-LINE/P.R.L. Hi-Speed Fluid Bed Dryer, Lab-Line Instruments, Inc.) or a vacuum oven (Baxter Scientific Products Vacuum Drying Oven, Model DP-32). […] Table C-7B
# [6] = tested on: Volume Expanded Hypertensive Rats; details: averaged for 24 hours after three weeks
# [7] = tested on: L-NAME/ANG-II-induced renal injury in rats; details: cited from earlier work
# [8] = human, in vivo, 400 mg, Single Dose, Moderate Impairment
# [9] = human, in vivo, 400 mg, Single Dose, Normal
# [10] = 0% 11,12-epoxide in starting eplerenone mixture
# [11] = 0% diepoxide in starting eplerenone mixture
# [12] = 1% 11,12-epoxide in starting eplerenone mixture
# [13] = 1% diepoxide in starting eplerenone mixture
# [14] = 3% diepoxide in starting eplerenone mixture
# [15] = 5% 11,12-epoxide in starting eplerenone mixture
# [16] = 5% diepoxide in starting eplerenone mixture
# [17] = 10% 11,12-epoxide in starting eplerenone mixture
smiles,measurement,setting,value
"COC(=O)[C@@H]1CC2=CC(=O)CC[C@]2(C)[C@@]23O[C@@H]2C[C@@]2(C)[C@@H](CC[C@@]24CCC(=O)O4)[C@H]13 [Eplerenone, Pregn-4-ene-7,21-dicarboxylic acid, 9,11-epoxy-17-hydroxy-3-oxo-, γ-lactone, methyl ester, (7α, 11α, 17β)-]",proteinuria,[1],38 ± 18 mg/day
same,severe hypertension (SBP),[1]; Figure A-12,237 ± 3 mmHg
same,signs of stroke,[1]; n=7,no signs of stroke up to 18.5 weeks of age
same,% NTG (peak relaxation to nitroglycerin),[2]; 1 % cholesterol chow (HC),112±4%
same,%Ach (peak relaxation to acetylcholine),[2]; 1 % cholesterol chow (HC),82±6 %
same,O2 counts,[2]; 1 % cholesterol chow (HC),1400±504 per mg of dry weight
same,% NTG (peak relaxation to nitroglycerin),[2]; normal chow (NC),107±2%
same,%Ach (peak relaxation to acetylcholine),[2]; normal chow (NC),97±3%
same,O2 counts,[2]; normal chow (NC),1110±373 per mg of dry weight
same,adverse events,[3],mild fatigue on Day 2
same,AUC greater among subjects with moderate hepatic impairment than matched normal subjects,"[4]; 400 mg, single dosing, b445 and b448 state it for single and multiple dose",41-50%
same,Ratio of Means AUC (0-24)/AUC0-co),[4]; Moderate Hepatic Impairment,0.95
same,"AUC (0-24), Ratio of Means Moderate/Normal",[4]; Multiple Dose,1.456
same,"CL/F, Ratio of Means Moderate/Normal",[4]; Multiple Dose,0.687
same,"Cmax, Ratio of Means Moderate/Normal",[4]; Multiple Dose,1.037
same,"XU(0-48), Ratio of Means Moderate/Normal",[4]; Multiple Dose,2.007
same,"XU(0-48), Least Squares Mean","[4]; Multiple Dose, Moderate Impairment",14.9 mg
same,"XU(0-48), Least Squares Mean","[4]; Multiple Dose, Normal",7.4 mg
same,Ratio of Means AUC (0-24)/AUC0-co),[4]; Normal,1.02
same,"AUC (0-lqc), Ratio of Means Moderate/Normal",[4]; Single Dose,1.413
same,"AUC (0-∞), Ratio of Means Moderate/Normal",[4]; Single Dose,1.497
same,"CL/.F, Ratio of Means Moderate/Normal",[4]; Single Dose,0.668
same,"Cmax, Ratio of Means Moderate/Normal",[4]; Single Dose,0.894
same,"XU(0-48), Ratio of Means Moderate/Normal",[4]; Single Dose,1.016
same,"XU(0-48), Least Squares Mean","[4]; Single Dose, Moderate Impairment",7.9 mg
same,"XU(0-48), Least Squares Mean","[4]; Single Dose, Normal",7.8 mg
same,AUC higher in moderate impairment compared to matched normal subjects,[4]; following multiple dosing 400 mg QD,46%
same,AUC tau at 24 h,"[4]; human, in vivo, 400 mg, Multiple Dose, Moderate Impairment, read-out: AUC (0-24), Least Squares Mean",43800 ng·h/mL
same,CL/F,"[4]; human, in vivo, 400 mg, Multiple Dose, Moderate Impairment, read-out: CL/F, Least Squares Mean (converted)",152 mL/min
same,CL/F,"[4]; human, in vivo, 400 mg, Multiple Dose, Moderate, read-out: CL/F, Mean (converted)",149 mL/min
same,AUC tau at 24 h,"[4]; human, in vivo, 400 mg, Multiple Dose, Normal, read-out: AUC (0-24), Least Squares Mean",30100 ng·h/mL
same,CL/F,"[4]; human, in vivo, 400 mg, Multiple Dose, Normal, read-out: CL/F, Least Squares Mean (converted)",222 mL/min
same,CL/F,"[4]; human, in vivo, 400 mg, Multiple Dose, Normal, read-out: CL/F, Mean (converted)",230 mL/min
same,Tmax,"[4]; human, in vivo, 400 mg, Multiple Dose, Normal, read-out: Tmax, Least Squares Mean",2.1 h
same,AUC(0-t),[4]; [8],42800 ng·h/mL
same,AUC(0-inf),[4]; [8],43600 ng·h/mL
same,CL/F,"[4]; human, in vivo, 400 mg, Single Dose, Moderate Impairment, read-out: CL/.F, Least Squares Mean (converted)",153 mL/min
same,CL/F,"[4]; human, in vivo, 400 mg, Single Dose, Moderate, read-out: CL/F, Mean (converted)",175 mL/min
same,AUC(0-t),[4]; [9],30300 ng·h/mL
same,AUC(0-inf),[4]; [9],29100 ng·h/mL
same,CL/F,"[4]; human, in vivo, 400 mg, Single Dose, Normal, read-out: CL/.F, Least Squares Mean (converted)",228 mL/min
same,CL/F,"[4]; human, in vivo, 400 mg, Single Dose, Normal, read-out: CL/F, Mean (converted)",254 mL/min
same,AUC tau at 24 h,"[4]; human, in vivo, 400 mg, linear kinetics assessment, Moderate Hepatic Impairment, read-out: Multiple Dose AUC (0-24), Least Squares Mean",47200 ng·h/mL
same,AUC tau at 24 h,"[4]; human, in vivo, 400 mg, linear kinetics assessment, Normal, read-out: Multiple Dose AUC (0-24), Least Squares Mean",29300 ng·h/mL
same,subjects with adverse events,[4]; subjects with moderate hepatic impairment,44%
same,subjects with adverse events,[4]; subjects with normal hepatic function,35%
same,Weight Percent Form H (XPRD),"[5]; cooling rate (0) 1.5°C/min, endpoint (0) 25°C, 100.8% eplerenone seeded with Form H, analyzed by DSC",100 Weight Percent
same,Weight Percent Form H (XPRD),"[5]; cooling rate (0) 1.5°C/min, endpoint (0) 25°C, 100.8% eplerenone seeded with Form H, analyzed by XPRD",77 Weight Percent
same,Weight Percent Form H (XPRD),"[5]; cooling rate (+) 3°C/min, cooling endpoint (+) 45°C, impurity level (+) 89.3% purity starting material",29 Weight Percent
same,Weight Percent Form H (XPRD),"[5]; cooling rate (-) 0.1°C/min, cooling endpoint (+) 45°C, impurity level (+) 89.3% purity starting material",31 Weight Percent
same,Weight Percent Form H,"[5]; cooling rate High, end point High, impurity level High, drying: High Fluid Bed",25%
same,Weight Percent Form H,"[5]; cooling rate High, end point High, impurity level High, drying: Low Fluid Bed",4.7%
same,Weight Percent Form H,"[5]; cooling rate High, end point High, impurity level High, drying: Vacuum Oven",29%
same,Weight Percent Form H,"[5]; cooling rate Low, end point Low, impurity level Low, drying: Low Fluid Bed",5.5%
same,Estimated Weight Percent of Form H,[5]; [10],None Detected
same,Form H Peak Area 12° Two Theta Peak,[5]; [10],None Detected
same,Estimated Weight Percent of Form H,[5]; [11],None Detected
same,Form H Peak Area 12° Two Theta Peak,[5]; [11],None Detected
same,Estimated Weight Percent of Form H,[5]; [12],None Detected
same,Form H Peak Area 12° Two Theta Peak,[5]; [12],None Detected
same,Estimated Weight Percent of Form H,[5]; [13],None Detected
same,Form H Peak Area 12° Two Theta Peak,[5]; [13],None Detected
same,Estimated Weight Percent of Form H,[5]; [14],10%
same,Form H Peak Area 12° Two Theta Peak,[5]; [14],1168
same,Estimated Weight Percent of Form H,[5]; [15],None Detected
same,Form H Peak Area 12° Two Theta Peak,[5]; [15],None Detected
same,Estimated Weight Percent of Form H,[5]; [16],30%
same,Form H Peak Area 12° Two Theta Peak,[5]; [16],4175
same,Estimated Weight Percent of Form H,[5]; [17],10-15%
same,Form H Peak Area 12° Two Theta Peak,[5]; [17],1541
same,HR,[6]; 100 mg/kg s.c.,352 ± 4 beats/min
same,SAP,[6]; 100 mg/kg s.c.,155 ± 7 mmHg
same,HR,[6]; 200 mg/kg s.c.,339 ± 4 beats/min
same,SAP,[6]; 200 mg/kg s.c.,174 ± 5 mmHg
same,L-NAME/ANG-II-induced renal injury,[7],prevents L-NAME/ANG-II-induced renal injury
